Assay results as given in US9707184B2, “Immediate release abuse deterrent liquid fill dosage form” (priority 2014, dated 2017).

Test: Solubility of the formulation components in water and alcohol
Type: physicochemical
Conditions: 200 proof ethanol, filtered through a 0.45 micrometer PTFE filter
From the text: Dyes can also be used and chosen to be soluble in both water and alcohol to produce a dark colored solution upon extraction and filtering as a visual deterrent to abuse. The formulation can include the following components listed in the Table 8 below, including a number of different dyes.

Row | SMILES | Alcohol Solubility (Tested)
1 | COc1cc(S(=O)(=O)[O-])c(C)cc1N=Nc1c(O)ccc2cc(S(=O)(=O)[O-])ccc12.[Na+].[Na+] [FD&C Red #40] | Yes
2 | COc1ccc2c3c1O[C@H]1C(=O)CC[C@@]4(O)[C@@H](C2)N(C)CC[C@]314.Cl [Oxycodone HCl, reference compound] | Yes
3 | CCN(Cc1cccc(S(=O)(=O)[O-])c1)c1ccc(C(=C2C=CC(=[N+](CC)Cc3cccc(S(=O)(=O)[O-])c3)C=C2)c2ccccc2S(=O)(=O)[O-])cc1.[Na+].[Na+] [FD&C Blue #1] | Yes
